Three compounds from US11737999B2, “Amino acid compositions and methods for the treatment of post-acute sequelae of COVID-19” (AXCELLA HEALTH INC., priority 2021, dated 2023) can be followed below.

The test system of test [1] is MCP1/CCL2. Put plainly: MCP1/CCL2 secretion by ELISA in primary human hepatocytes with FFA + TNFα. It is filed as cell-based. (In an ELISA, binding on a coated surface is turned into a signal by an enzyme label.)
Test [2] concerns MCP-1. Put plainly: MCP-1 chemokine secretion in primary human hepatic stellate cells stimulated with TNFα. It is filed as cell-based. The note with it: hepatic stellate cells, two donors.
Test [3] deals with IL-6. Put plainly: IL-6 cytokine secretion in primary human hepatic stellate cells stimulated with TNFα. The test is classed as cell-based. The settings on record: hepatic stellate cells, two donors.
Test [4] has as its system IL-6. Put plainly: LPS-induced IL-6 secretion in primary human monocyte-derived macrophages. The settings on record: for IL-6 Measurements, Mean: LPS, baseline subtracted values.
For test [5], the system named is TNF-α. Put plainly: LPS-induced TNF-α secretion in primary human monocyte-derived macrophages. The note with it: for TNF-α Measurements Mean (baseline subtracted): 0.15 ng/mL LPS.
The test system of test [6] is Col1a1. Put plainly: Col1a1 gene expression (RT-qPCR) in primary human hepatic stellate cells stimulated with TGFβ1. The settings on record: for Col1a1 Fold Expression Relative to Control, Mean: single amino acid. It is filed as cell-based. On the technique in general: Real-time PCR tracks product formation cycle by cycle.
In test [7] the test system is Procollagen Iα1. The experiment in a line: Procollagen Iα1 secretion (ELISA) in primary human hepatic stellate cells stimulated with TGFβ1. It is filed as cell-based. The settings on record: hepatic stellate cells, three donors.
[8] abbreviates: Donor 2, Conc. 153 μM (baseline).
The mark [9] stands for this setting: Donor 2, Conc. 749 μM (baseline).

On to `CC(C)C[C@H](N)C(=O)O` [Leucine, L-Leucine], for which the “MCP1 expression relative to Control, Mean” value in test [1] (Donor 1, Conc. 153 μM) is recorded as 5.92E−16; in test [1] (Donor 1, Conc. 3054 μM), 3.34; in test [1] (Donor 1, Conc. 7635 μM), 1.896; in test [1] (Donor 1, Conc. 15270 μM), −1.368; in test [1] (Donor 2, Conc. 153 μM), −4.7E−15; in test [1] (Donor 2, Conc. 3054 μM), 16.11. Also, the “MCP1 expression relative to Control, Mean” value in test [1] (Donor 2, Conc. 7635 μM) was −2.988; in test [1] (Donor 2, Conc. 15270 μM) it was −26.6436. Also, the “MCP-1 secretion (summary in words)” value in test [2] is reported as “no significant impact on MCP-1 secretion”. In addition, the “IL-6 secretion (summary in words)” value in test [3] is given as “no significant effect on IL-6 secretion”. The “IL-6 Measurements, Mean” value in test [4] (Donor 1, Conc. 153 μM (baseline)) is 0; in test [4] (setting [8]), 7.11E−15; in test [4] (Donor 2, Conc. 3054 μM), 29.61; in test [4] (Donor 2, Conc. 7635 μM), 30.46; in test [4] (Donor 2, Conc. 15270 μM), 47.6. Besides, the “LPS-induced IL-6 secretion (summary in words)” value (shortened to “LPS-induced IL-6 secretion”) in test [4] (Donor 2) is given as “increased IL-6 secretion”. The “TNF-α Measurements Mean (baseline subtracted)” value (from here on “TNF-α Measurements Mean”) in test [5] (Donor 1, Conc. 3054 μM) was 42.04; in test [5] (Donor 1, Conc. 7635 μM), −23.04; in test [5] (Donor 1, Conc. 15270 μM) it was −46.21; in test [5] (setting [8]) it was 0; in test [5] (Donor 2, Conc. 3054 μM), 31.74; in test [5] (Donor 2, Conc. 7635 μM), 41.98. For the same compound, the “TNF-α Measurements Mean” value in test [5] (Donor 2, Conc. 15270 μM) turned out to be 46.69. In addition, the “LPS-induced TNF-α secretion (summary in words)” value in test [5] (Donor 2) is “increased TNF-α secretion”.
Take `NC(=O)CC[C@H](N)C(=O)O` [Glutamine, L-Glutamine]: the “MCP1 expression relative to Control, Mean” value in test [1] (Donor 1, Conc. 749 μM) is on record as 0; in test [1] (Donor 1, Conc. 3747 μM) it was −0.8981; in test [1] (Donor 1, Conc. 11242 μM), −9.001; in test [1] (Donor 1, Conc. 22484 μM) it was −21.8392; in test [1] (Donor 2, Conc. 749 μM), 2.84E−14; in test [1] (Donor 2, Conc. 3747 μM), −45.0574. For the same compound, the “MCP1 expression relative to Control, Mean” value was −90.6558 in test [1] (Donor 2, Conc. 11242 μM) and −138.873 in test [1] (Donor 2, Conc. 22484 μM). Further, the “MCP-1 secretion (summary in words)” value in test [2] is recorded as “reduced MCP1 secretion in both donors but was only statistically significant in one of two donors”. Further, the “IL-6 secretion (summary in words)” value in test [3] is reported as “significantly reduced IL-6 secretion in both donors”. The “LPS-induced IL-6 secretion” value in test [4] (Donor 1) was “increased IL-6 secretion”; in test [4] (Donor 2) it was “increased IL-6 secretion”; in test [4] (Donor 3), “significantly increased IL-6 secretion”. Moreover, the “IL-6 Measurements, Mean” value in test [4] (Donor 1, Conc. 749 μM (baseline)) is recorded as 0; in test [4] (setting [9]) it was 2.37E−15; in test [4] (Donor 2, Conc. 3747 μM) it was 22.52; in test [4] (Donor 2, Conc. 11242 μM), 63.31; in test [4] (Donor 2, Conc. 22484 μM), 34.39. Besides, the “TNF-α Measurements Mean” value was −45.7 in test [5] (Donor 1, Conc. 3747 μM); −65.24 in test [5] (Donor 1, Conc. 11242 μM); −103.07 in test [5] (Donor 1, Conc. 22484 μM); −9.5E−15 in test [5] (setting [9]); 9.338 in test [5] (Donor 2, Conc. 3747 μM); 20.04 in test [5] (Donor 2, Conc. 11242 μM). Moreover, the “TNF-α Measurements Mean” value in test [5] (Donor 2, Conc. 22484 μM) was 11.5; in test [5] (Donor 3, Conc. 749 μM (baseline)) it was 0; in test [5] (Donor 3, Conc. 3747 μM), 1.936; in test [5] (Donor 3, Conc. 11242 μM), 18; in test [5] (Donor 3, Conc. 22484 μM), 29.14. The “LPS-induced TNF-α secretion (summary in words)” value in test [5] (Donor 2) and in test [5] (Donor 3) was “increased TNF-α secretion” each time.
`N=C(N)NCCC[C@H](N)C(=O)O` [Arginine, L-Arginine]: in test [1] (primary human hepatocytes, two healthy donors), the “MCP1/CCL2 secretion (summary in words)” value was “increased MCP1 secretion”. In addition, the “MCP-1 secretion (summary in words)” value in test [2] is on record as “no significant impact on MCP-1 secretion”. The “IL-6 secretion (summary in words)” value in test [3] is reported as “no significant effect on IL-6 secretion”. In addition, in test [6] (hepatic stellate cells, three donors), the “Col1a1 gene expression (summary in words)” value is given as “did not significantly change Col1a1 gene expression in any donor”. Further, the “Col1a1 Fold Expression Relative to Control, Mean” value in test [6] (second donor (Table 27), 1088 μM) was 0.99 fold; in test [6] (second donor (Table 27), 2720 μM), 1.15 fold; in test [6] (second donor (Table 27), 5440 μM), 1.15 fold; in test [6] (second donor (Table 29), 1088 μM) it was 0.95 fold; in test [6] (second donor (Table 29), 2720 μM) it was 0.99 fold; in test [6] (second donor (Table 29), 5440 μM), 1.02 fold. Further, in test [7], the “procollagen Iα1 secretion (summary in words)” value is “significantly increased procollagen Iα1 secretion in two of three donors”. For the same compound, in test [4] (Donor 1), the “LPS-induced IL-6 secretion” value is recorded as “increased IL-6 secretion”.
